Measurements reported in PMC7590683, “Xanthine oxidase inhibitory activity of a new isocoumarin obtained from Marantodes pumilum var. pumila leaves” (BMC Complementary Medicine and Therapies, 2020).
Read-outs that look alike come from different tables or passages of the source. One block for each compound: values may come before it.

Key:
xanthine oxidase [1] = system: xanthine oxidase; set-up: method as in PMID 18201686; settings: cited from earlier work
xanthine oxidase [2] = system: xanthine oxidase; set-up: method as in PMID 8572586; settings: cited from earlier work
xanthine oxidase [3] = target: T1, xanthine oxidase (Bos taurus, UniProt P80457); test: In vitro xanthine oxidase inhibitory assay; assay type: biochemical, cow; settings: for inhibition at 6.25 µg/mL: 6.25 μg/mL; for inhibition at 12.5 µg/mL: 12.5 μg/mL; for inhibition at 25 µg/mL: 25 μg/mL; for inhibition at 50 µg/mL: 50 μg/mL; for IC50: mean ± S.E.M., n = 3, read-out: IC50 value of xanthine oxidase inhibition (converted)
T1 construct: xanthine oxidase (cow’s milk) were purchased from Sigma-Aldrich Chemicals; purchased Sigma-Aldrich Chemicals (St. Louis, MO, USA); host or cells: cow's milk (natural source)
T1 sequence (P80457 whole entry): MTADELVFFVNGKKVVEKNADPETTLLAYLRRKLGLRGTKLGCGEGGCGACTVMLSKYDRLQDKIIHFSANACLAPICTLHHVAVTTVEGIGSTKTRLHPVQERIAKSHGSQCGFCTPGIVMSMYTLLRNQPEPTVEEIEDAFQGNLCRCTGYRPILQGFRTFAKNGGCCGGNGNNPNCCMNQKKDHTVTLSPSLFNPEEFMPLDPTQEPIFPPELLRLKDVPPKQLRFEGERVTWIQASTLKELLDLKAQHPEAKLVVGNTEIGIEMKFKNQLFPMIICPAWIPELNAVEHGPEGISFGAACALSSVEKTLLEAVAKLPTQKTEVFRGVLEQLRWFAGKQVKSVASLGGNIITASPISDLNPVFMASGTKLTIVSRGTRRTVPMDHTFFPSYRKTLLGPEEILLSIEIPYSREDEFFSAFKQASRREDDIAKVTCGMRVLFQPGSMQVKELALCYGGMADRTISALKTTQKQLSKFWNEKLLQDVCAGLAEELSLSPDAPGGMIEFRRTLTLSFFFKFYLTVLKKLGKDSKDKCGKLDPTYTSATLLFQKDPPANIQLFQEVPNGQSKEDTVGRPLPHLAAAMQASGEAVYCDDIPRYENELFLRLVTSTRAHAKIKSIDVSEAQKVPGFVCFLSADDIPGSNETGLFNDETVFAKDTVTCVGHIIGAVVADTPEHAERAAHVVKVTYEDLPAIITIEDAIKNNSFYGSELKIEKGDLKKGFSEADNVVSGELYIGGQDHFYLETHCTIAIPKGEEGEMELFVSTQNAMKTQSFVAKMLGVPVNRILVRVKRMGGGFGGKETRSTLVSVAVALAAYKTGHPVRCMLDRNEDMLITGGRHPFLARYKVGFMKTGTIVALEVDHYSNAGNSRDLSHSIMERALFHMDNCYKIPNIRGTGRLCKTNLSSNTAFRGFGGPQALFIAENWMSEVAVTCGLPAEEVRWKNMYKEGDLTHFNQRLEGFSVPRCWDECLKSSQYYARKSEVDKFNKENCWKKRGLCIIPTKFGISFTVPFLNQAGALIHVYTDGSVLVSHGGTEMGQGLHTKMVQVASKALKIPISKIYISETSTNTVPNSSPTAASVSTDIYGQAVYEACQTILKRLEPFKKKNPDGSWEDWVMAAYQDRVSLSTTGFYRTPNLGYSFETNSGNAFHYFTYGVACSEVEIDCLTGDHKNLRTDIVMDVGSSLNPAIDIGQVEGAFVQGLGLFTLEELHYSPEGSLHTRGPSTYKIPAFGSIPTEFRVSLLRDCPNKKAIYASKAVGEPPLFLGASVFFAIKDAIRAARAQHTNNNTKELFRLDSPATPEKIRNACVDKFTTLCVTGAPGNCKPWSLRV
Description: The xanthine oxidase inhibitory assay was carried out using a previously reported method with slight modifications. […] This was followed by dilution with potassium phosphate buffer (0.05 M, pH 7.5) to achieve the desired concentrations. Each test solution contained 0.5% DMSO. The assay was performed in triplicates in a 96-well microplate. […] Then, 100 μL of substrate solution, xanthine (0.15 mM, pH 7.5), was added before further incubating at 25 °C for 10 min. The final assay mixture was spectrophotometrically measured at 295 nm. Xanthine oxidase inhibitory activity was expressed as the percentage of xanthine oxidase inhibition and calculated using the following formula: %Xanthine Oxidase Inhibition=A−B−C−D/A−B×100

xanthine oxidase [4] = system: xanthine oxidase; set-up: method as in PMID 30189275; settings: better than allopurinol; cited from earlier work
[5] = read-out: Percentage of xanthine oxidase inhibition
[6] = 100 μg/mL, read-out: Percentage of xanthine oxidase inhibition

Compound: COc1cc2ccc(=O)oc2cc1O [scopoletin]
mode of inhibition against xanthine oxidase (xanthine oxidase [1]): competitive inhibition

Compound: O=c1ccc2ccccc2o1 [coumarin]
mode of inhibition against xanthine oxidase (xanthine oxidase [1]): competitive inhibition

Compound: O=c1ccc2cc(O)c(O)cc2o1 [Esculetin]
mode of inhibition against xanthine oxidase (xanthine oxidase [1]): competitive inhibition
relative potency among selected coumarins against xanthine oxidase (xanthine oxidase [1]): most potent inhibitor
xanthine oxidase inhibitory activity (in words) (xanthine oxidase [2]): strong

Compound: Cc1cc(=O)oc2cc(O)c(O)cc12 [7-hydroxy-4-methylesculetin]
mode of inhibition against xanthine oxidase (xanthine oxidase [1]): competitive inhibition

inhibition at 6.25 µg/mL (xanthine oxidase [3]; [5]): 9.11 ± 0.28%
inhibition at 12.5 µg/mL (xanthine oxidase [3]; [5]): 14.5 ± 0.45%
inhibition at 25 µg/mL (xanthine oxidase [3]; [5]): 36.31 ± 0.08%
inhibition at 50 µg/mL (xanthine oxidase [3]; [5]): 74.08 ± 0.5%
xanthine oxidase inhibitory activity (in words) (xanthine oxidase [3]; isolated compounds): low activity
IC50 (xanthine oxidase [3]): 59 µM
Compound: COC1=CC(=O)C(O)=C(CCCCCCC/C=C\CCCCCCCC2=C(O)C(=O)C=C(OC)C2=O)C1=O [Compound 2, Ardisiaquinone A]

inhibition at 0.39 µg/mL (xanthine oxidase [3]; 0.39 μg/mL, read-out: Percentage of xanthine oxidase inhibition): 39.6 ± 0.68%
inhibition at 0.78 µg/mL (xanthine oxidase [3]; 0.78 μg/mL, read-out: Percentage of xanthine oxidase inhibition): 54.14 ± 0.34%
inhibition at 1.56 µg/mL (xanthine oxidase [3]; 1.56 μg/mL, read-out: Percentage of xanthine oxidase inhibition): 66.49 ± 0.05%
inhibition at 3.13 µg/mL (xanthine oxidase [3]; 3.13 μg/mL, read-out: Percentage of xanthine oxidase inhibition): 76.17 ± 0.52%
inhibition at 6.25 µg/mL (xanthine oxidase [3]; [5]): 86.02 ± 0.14%
inhibition at 12.5 µg/mL (xanthine oxidase [3]; [5]): 91.75 ± 0.22%
inhibition at 25 µg/mL (xanthine oxidase [3]; [5]): 95.04 ± 0.86%
inhibition at 50 µg/mL (xanthine oxidase [3]; [5]): 96.91 ± 0.06%
IC50 (xanthine oxidase [3]): 2.79 µM
Compound: COc1cc(O)c(C)c2c(=O)oc(O)c(C)c12 [Compound 1, 3,7-dihydroxy-5-methoxy-4,8-dimethyl-isocoumarin]

inhibition at 100 µg/mL (xanthine oxidase [3]; [6]): 0%
Compound: CCCCCCCCCCCCCCCCC(=O)O [Compound 6, Margaric acid]

Compound: O=c1ccc2ccc(O)cc2o1 [7-hydroxycoumarin]
mode of inhibition against xanthine oxidase (xanthine oxidase [1]): competitive inhibition

Compound: O=c1oc2cc(O)cc(O)c2cc1-c1cccc(O)c1 [5,7-dihydroxy-3-(3-hydroxyphenyl) coumarin]
xanthine oxidase inhibitory activity relative to allopurinol (xanthine oxidase [4]): 7 fold

Compound: O=C1CCc2ccccc2O1 [dihydrocoumarin]
mode of inhibition against xanthine oxidase (xanthine oxidase [1]): competitive inhibition

Compound: CCCC/C=C\CCCCCCCCCC1=C(O)C(=O)C=C(OC)C1=O [Compound 3, Maesanin]
inhibition at 100 µg/mL (xanthine oxidase [3]; [5]): 0%

Compound: CC[C@H](/C=C/[C@@H](C)[C@H]1CC[C@H]2[C@@H]3CC=C4C[C@@H](O)CC[C@]4(C)[C@H]3CC[C@]12C)C(C)C [Compound 4, Stigmasterol]
inhibition at 100 µg/mL (xanthine oxidase [3]; [6]): 0%

Compound: Oc1ncnc2[nH]ncc12 [Allopurinol, allopurinol, reference compound]
inhibition at 0.0064 µg/mL (xanthine oxidase [3]; [5]): 4.12%
inhibition at 0.032 µg/mL (xanthine oxidase [3]; [5]): 17.8%
inhibition at 0.16 µg/mL (xanthine oxidase [3]; [5]): 29.5%
inhibition at 0.8 µg/mL (xanthine oxidase [3]; [5]): 93.7%
inhibition at 4 µg/mL (xanthine oxidase [3]; [5]): 98.9%
inhibition at 20 µg/mL (xanthine oxidase [3]; [5]): 99%
inhibition at 100 µg/mL (xanthine oxidase [3]; [5]): 99.8%

inhibition at 100 µg/mL (xanthine oxidase [3]; [6]): 0%
Compound: CCCCCCCCCCCCCCCCCCCCCCCC [Compound 5, Tetracosane]

Compound: O=c1cc(O)c2ccccc2o1 [4-hydroxycoumarin]
mode of inhibition against xanthine oxidase (xanthine oxidase [1]): competitive inhibition
